# Test results taken from US20240066028A1, “COMPOSITIONS FOR IMPROVED DELIVERY OF CGRP INHIBITORS” (Pfizer Ireland Pharmaceuticals, priority 2020, published 2024).
# Key:
# in vivo = conditions: female, beagle, dog, 50 mg; for AUC(0-t): AUC0-4 hr
# [1] = Study BHV3500-107 Cohort 1: zavegepant 50 mg SoftGel QD PK (fasted Days 1-10, fed Days 11-14); format: in vivo, humans; conditions: for Concentration: Cohort 1, 50 mg QD SoftGel, pre-dose
# [2] = PK exposure from 10 mg intranasal (IN) zavegepant; format: in vivo, human; conditions: 10 mg IN
# [3] = Phase 2/3 dose-ranging clinical trial of intranasal BHV-3500; format: in vivo, human; conditions: intranasal unit doses 5, 10 and 20 mg; treatment of migraine
# human CGRP = human CGRP (Homo sapiens, UniProt O60894+Q16602); conditions: cited from earlier work
# human CGRP, sequence (Q16602 23-461): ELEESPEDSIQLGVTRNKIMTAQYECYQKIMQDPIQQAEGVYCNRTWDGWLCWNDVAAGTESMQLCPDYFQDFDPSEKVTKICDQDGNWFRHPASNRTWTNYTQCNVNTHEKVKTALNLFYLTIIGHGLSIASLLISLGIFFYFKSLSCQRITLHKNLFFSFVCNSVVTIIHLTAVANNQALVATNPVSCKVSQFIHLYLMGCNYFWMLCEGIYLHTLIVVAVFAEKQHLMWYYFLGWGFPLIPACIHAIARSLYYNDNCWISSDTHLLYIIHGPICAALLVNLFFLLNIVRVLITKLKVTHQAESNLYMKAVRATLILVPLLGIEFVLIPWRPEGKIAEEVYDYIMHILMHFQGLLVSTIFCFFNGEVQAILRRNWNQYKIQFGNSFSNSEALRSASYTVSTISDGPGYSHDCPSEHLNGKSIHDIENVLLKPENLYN
# human CGRP, sequence (O60894 27-148): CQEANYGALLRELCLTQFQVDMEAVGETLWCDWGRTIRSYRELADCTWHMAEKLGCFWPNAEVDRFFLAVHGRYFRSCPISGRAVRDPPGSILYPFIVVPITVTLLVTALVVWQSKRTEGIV
# [4] = Study BHV3500-103 Treatment B: PK after 50 mg x 1 SoftGel orally; format: in vivo, humans; conditions: Study 103, 50 mg SoftGel x 1 oral; for AUC(0-t) / AUC(0-inf) / Cmax / Tmax: human, in vivo, po, 50 mg
# Protocol: Single-dose: Study BHV3500-103, PK data after 50 mg×1 (2×25 mg) SoftGel administered orally (Treatment B)
# [5] = female, beagle, dog, in vivo, 50 mg
# [6] = Cohort 1, Day 10, 50 mg QD SoftGel oral, fasted, multiple dose, Max
# [7] = Cohort 1, Day 10, 50 mg QD SoftGel oral, fasted, multiple dose, Min
# [8] = Day 14 (with food, moderate fat meal) vs. Day 10 (fasted), 50 mg QD SoftGel
# [9] = Study 107, Cohort 1, Day 1, 50 mg SoftGel single dose, fasted
smiles,measurement,setting,value
"Cc1cc(C[C@@H](NC(=O)N2CCC(c3cc4ccccc4[nH]c3=O)CC2)C(=O)N2CCN(C3CCN(C)CC3)CC2)cc2cn[nH]c12 [BHV-3500, (R)-N-(3-(7-methyl-1H-indazol-5-yl)-1-(4-(1-methylpiperidin-4-yl)piperazin-1-yl)-1-oxopropan-2-yl)-4-(2-oxo-1,2-dihydroquinolin-3-yl)piperidine-1-carboxamide]",AUC(0-t),in vivo,40.3 ng·h/mL
same,AUC(0-t),in vivo; Median/Average,55.1 ng·h/mL
same,Cmax,"in vivo; Cmax, Median/Average",37 ng/mL
same,Tmax,"in vivo; Tmax, Median/Average",1 h
same,half-life,in vivo; t1/2,0.54 h
same,half-life,"in vivo; t1/2, Median/Average",0.77 h
same,Pre-dose (C0) concentrations,"[1]; 50 mg QD SoftGel, Days 1-14",largely below the LLOQ
same,Concentration,"[1]; Day 6, fasting, Mean",0.0936 ng/mL
same,Concentration,"[1]; Day 10, fasting, Max",8.5 ng/mL
same,Concentration,"[1]; Day 10, fasting, Mean",0.0582 ng/mL
same,Concentration,"[1]; Day 12, moderate fat meal, Mean",0.0764 ng/mL
same,Concentration,"[1]; Day 12, moderate fat meal, Min",0 ng/mL
same,Concentration,"[1]; Day 14, moderate fat meal, Mean",0 ng/mL
same,Concentration,"[1]; Day 14, moderate fat meal, Min",0 ng/mL
same,Cmax,"[1]; Cohort 1, Day 1, 50 mg SoftGel oral, fasted, single dose, Max",13.8 ng/mL
same,Residual area,"[1]; Cohort 1, Day 1, 50 mg SoftGel oral, fasted, single dose, Median",8.9%
same,Cmax,"[1]; Cohort 1, Day 1, 50 mg SoftGel oral, fasted, single dose, Min",1.42 ng/mL
same,Cmax,[1]; [6],46.1 ng/mL
same,Tmax,[1]; [6],5 h
same,Tmax,"[1]; Cohort 1, Day 10, 50 mg QD SoftGel oral, fasted, multiple dose, Mean, listed as Zavegepant",2.59 h
same,Cmax,[1]; [7],2.27 ng/mL
same,Tmax,[1]; [7],1.5 h
same,Cmax,"[1]; Cohort 1, Day 14, 50 mg QD SoftGel oral, fed (moderate fat meal), multiple dose, Max",3.02 ng/mL
same,Tmax,"[1]; Cohort 1, Day 14, 50 mg QD SoftGel oral, fed (moderate fat meal), multiple dose, Min",2.5 h
same,decrease in extent of absorption (AUC) with food,[1]; [8],~65%
same,decrease in rate of absorption (Cmax) with food,[1]; [8],~72%
same,Tmax,"[1]; Day 14, fed (moderate fat meal), multiple dose, 50 mg QD SoftGel, statistic not stated, listed as zavegepant",3.6 h
same,"AUC0-24, Max",[1]; [9],46.3 ng·h/mL
same,"AUC0-24, Mean",[1]; [9],19.1 ng·h/mL
same,"AUC0-24, Min",[1]; [9],4.66 ng·h/mL
same,"AUCINF_obs, Max",[1]; [9],47.8 ng·h/mL
same,"AUCINF_obs, Mean",[1]; [9],22.6 ng·h/mL
same,"AUCINF_obs, Min",[1]; [9],9.54 ng·h/mL
same,"Cmax, Max",[1]; [9],13.8 ng/mL
same,"Cmax, Min",[1]; [9],1.42 ng/mL
same,"HL_Lambda_z, Geometric Mean",[1]; [9],2.48 h
same,"HL_Lambda_z, Max",[1]; [9],5.07 h
same,"HL_Lambda_z, Mean",[1]; [9],2.66 h
same,"HL_Lambda_z, Median",[1]; [9],2.19 h
same,"HL_Lambda_z, Min",[1]; [9],1.62 h
same,"Tmax, Max",[1]; [9],5.00 h
same,steady state achieved by,"[1]; concentrations at 8 hours post-dose, multiple dosing 50 mg QD, fasted state",≤ 3 days
same,Cmax,"[1]; human, in vivo, oral, 50 mg, Day 10, steady state, fasting, 50 mg QD SoftGel, statistic not stated, range 2.3 to 46.1, read-out: Cmax",5.7 ng/mL
same,AUC(0-t),"[1]; human, in vivo, oral, 50 mg, Day 10, steady state, fasting, 50 mg QD SoftGel, statistic not stated, range 6.7 to 75.4, read-out: AUC0-24",20.4 ng·h/mL
same,Tmax,"[1]; human, in vivo, oral, 50 mg, Day 10, steady state, fasting, 50 mg QD SoftGel, statistic not stated, read-out: Tmax",2 h
same,Tmax,"[1]; human, in vivo, oral, 50 mg, Day 14, fed (moderate fat meal), multiple dose, 50 mg QD SoftGel, statistic not stated, read-out: Tmax",4 h
same,Cmax,"[1]; human, in vivo, oral, 50 mg, Day 14, fed (moderate fat meal), 50 mg QD SoftGel, statistic not stated, range 1.0 to 3.0, read-out: Cmax",1.6 ng/mL
same,AUC(0-t),"[1]; human, in vivo, oral, 50 mg, Day 14, fed (moderate fat meal), 50 mg QD SoftGel, statistic not stated, range 3.7 to 16.6, read-out: AUC0-24",7.3 ng·h/mL
same,AUC(0-t),"[1]; human, in vivo, oral, 50 mg, Study 107, Cohort 1, Day 1, 50 mg SoftGel single dose, fasted, read-out: AUC0-24, Geometric Mean",15.8 ng·h/mL
same,AUC(0-t),"[1]; human, in vivo, oral, 50 mg, Study 107, Cohort 1, Day 1, 50 mg SoftGel single dose, fasted, read-out: AUC0-24, Median",16.7 ng·h/mL
same,AUC(0-inf),"[1]; human, in vivo, oral, 50 mg, Study 107, Cohort 1, Day 1, 50 mg SoftGel single dose, fasted, read-out: AUCINF_obs, Geometric Mean",20 ng·h/mL
same,AUC(0-inf),"[1]; human, in vivo, oral, 50 mg, Study 107, Cohort 1, Day 1, 50 mg SoftGel single dose, fasted, read-out: AUCINF_obs, Median",20.6 ng·h/mL
same,Cmax,"[1]; human, in vivo, oral, 50 mg, Study 107, Cohort 1, Day 1, 50 mg SoftGel single dose, fasted, read-out: Cmax, Geometric Mean",5.3 ng/mL
same,Cmax,"[1]; human, in vivo, oral, 50 mg, Study 107, Cohort 1, Day 1, 50 mg SoftGel single dose, fasted, read-out: Cmax, Mean",6.32 ng/mL
same,Cmax,"[1]; human, in vivo, oral, 50 mg, Study 107, Cohort 1, Day 1, 50 mg SoftGel single dose, fasted, read-out: Cmax, Median",5.73 ng/mL
same,Tmax,"[1]; human, in vivo, oral, 50 mg, Study 107, Cohort 1, Day 1, 50 mg SoftGel single dose, fasted, read-out: Tmax, Geometric Mean",2.18 h
same,Tmax,"[1]; human, in vivo, oral, 50 mg, Study 107, Cohort 1, Day 1, 50 mg SoftGel single dose, fasted, read-out: Tmax, Mean",2.42 h
same,Tmax,"[1]; human, in vivo, oral, 50 mg, Study 107, Cohort 1, Day 1, 50 mg SoftGel single dose, fasted, read-out: Tmax, Median",2.25 h
same,Tmax,"[1]; human, in vivo, po, 50 mg, Cohort 1, Day 1, 50 mg SoftGel oral, fasted, single dose, Geometric Mean, read-out: Tmax",2.18 h
same,Cmax,"[1]; human, in vivo, po, 50 mg, Cohort 1, Day 1, 50 mg SoftGel oral, fasted, single dose, Mean, read-out: Cmax",6.32 ng/mL
same,Tmax,"[1]; human, in vivo, po, 50 mg, Cohort 1, Day 1, 50 mg SoftGel oral, fasted, single dose, Mean, read-out: Tmax",2.42 h
same,Cmax,"[1]; human, in vivo, po, 50 mg, Cohort 1, Day 1, 50 mg SoftGel oral, fasted, single dose, Median, read-out: Cmax",6.78 ng/mL
same,Tmax,"[1]; human, in vivo, po, 50 mg, Cohort 1, Day 1, 50 mg SoftGel oral, fasted, single dose, Median, read-out: Tmax",2.25 h
same,Tmax,"[1]; human, in vivo, po, 50 mg, Cohort 1, Day 10, 50 mg QD SoftGel oral, fasted, multiple dose, Geometric Mean, read-out: Tmax",2.35 h
same,Cmax,"[1]; human, in vivo, po, 50 mg, Cohort 1, Day 10, 50 mg QD SoftGel oral, fasted, multiple dose, Mean, read-out: Cmax",9.71 ng/mL
same,Tmax,"[1]; human, in vivo, po, 50 mg, Cohort 1, Day 10, 50 mg QD SoftGel oral, fasted, multiple dose, Mean, read-out: Tmax",2.69 h
same,Cmax,"[1]; human, in vivo, po, 50 mg, Cohort 1, Day 10, 50 mg QD SoftGel oral, fasted, multiple dose, Median, read-out: Cmax",4.7 ng/mL
same,Tmax,"[1]; human, in vivo, po, 50 mg, Cohort 1, Day 10, 50 mg QD SoftGel oral, fasted, multiple dose, Median, read-out: Tmax",2 h
same,Cmax,"[1]; human, in vivo, po, 50 mg, Cohort 1, Day 14, 50 mg QD SoftGel oral, fed (moderate fat meal), multiple dose, Geometric Mean, read-out: Cmax",1.62 ng/mL
same,Tmax,"[1]; human, in vivo, po, 50 mg, Cohort 1, Day 14, 50 mg QD SoftGel oral, fed (moderate fat meal), multiple dose, Geometric Mean, read-out: Tmax",3.63 h
same,Tmax,"[1]; human, in vivo, po, 50 mg, Cohort 1, Day 14, 50 mg QD SoftGel oral, fed (moderate fat meal), multiple dose, Mean, read-out: Tmax",3.78 h
same,Cmax,"[1]; human, in vivo, po, 50 mg, Cohort 1, Day 14, 50 mg QD SoftGel oral, fed (moderate fat meal), multiple dose, Median, read-out: Cmax",1.48 ng/mL
same,AUC,[2],33.0 ng·h/mL
same,lowest fully effective dose,[3],10 mg
same,Ki,human CGRP,0.023 nM
same,"AUC0-24, Max",[4],59.0 ng·h/mL
same,"AUCINF_obs, Max",[4],60.1 ng·h/mL
same,"AUCINF_obs, Min",[4],9.21 ng·h/mL
same,"Cmax, Max",[4],26.8 ng/mL
same,"Cmax, Min",[4],1.86 ng/mL
same,"HL_Lambda_z, Geometric Mean",[4],2.17 h
same,"HL_Lambda_z, Max",[4],4.74 h
same,"HL_Lambda_z, Mean",[4],2.28 h
same,"HL_Lambda_z, Median",[4],1.98 h
same,"HL_Lambda_z, Min",[4],1.48 h
same,"Tmax, Min",[4],0.500 h
same,AUC(0-t),"[4]; read-out: AUC0-24, Geometric Mean",21 ng·h/mL
same,AUC(0-t),"[4]; read-out: AUC0-24, Mean",25.3 ng·h/mL
same,AUC(0-t),"[4]; read-out: AUC0-24, Median",18.8 ng·h/mL
same,AUC(0-inf),"[4]; read-out: AUCINF_obs, Geometric Mean",21.5 ng·h/mL
same,AUC(0-inf),"[4]; read-out: AUCINF_obs, Mean",25.8 ng·h/mL
same,AUC(0-inf),"[4]; read-out: AUCINF_obs, Median",19.1 ng·h/mL
same,Cmax,"[4]; read-out: Cmax, Geometric Mean",7.6 ng/mL
same,Cmax,"[4]; read-out: Cmax, Mean",10.8 ng/mL
same,Cmax,"[4]; read-out: Cmax, Median",7.06 ng/mL
same,Tmax,"[4]; read-out: Tmax, Geometric Mean",1.65 h
same,Tmax,"[4]; read-out: Tmax, Mean",1.98 h
same,Tmax,"[4]; read-out: Tmax, Median",1.75 h
same,"AUC0-4 hr, Median/Average",[5],44.4 ng·h/mL
same,"Cmax, Median/Average",[5],31.7 ng/mL
same,"Tmax, Median/Average",[5],0.5 h
same,"t1/2, Median/Average",[5],0.71 h
